By inhibition is commonly meant the percentage by which the read-out fell short of the control.

Results on two compounds are retold here after patent publication EP0289229A1, “Antiviral combinations” (THE WELLCOME FOUNDATION LIMITED, priority 1987, dated 1988).

In experiment [1] the test system is herpes simplex type 1 (KOS strain). Nature of the experiment: Plaque reduction assay in Vero cells. To be noted: HSV-1 KOS, three days. The class given is cell-based. As for the experimental part: Antiviral activity was determined using a plaque reduction assay. Petri plates were seeded with Vero cells which were then allowed to grow to confluency. Each plate was then infected with a fixed number of plaque forming units (abut 100-500) of herpes simplex type 1 (KOS strain). The inhibitors, either alone or in the indicated combinations, were dissolved to give the indicated concentration in minimal essential medium containing 2% heat inactivated fetal calf serum and 0.5% human immune serum globulin: One hour after infection the solutions (10 ml per plate) were added to the cultures. Three days later the cultures were formalin-fixed and stained with crystal violet, and the plaques were counted.
On the technique in general: Plaque reduction counts the foci of infection that form in a cell layer.

For experiment [2], the system named is Friend Leukemia Virus (FLV). The experiment in a line: Anti-Friend Leukemia Virus plaque inhibition in FG-10 cells. Format: cell-based. The settings on record: FG-10 cells infected with FLV; compound added one hour after infecting; 3 + 3 days incubation; read-out: IC50 (concentration giving 50% inhibition of plaques). On the procedure: The enhancement of the Anti-Friend Leukemia Virus (FLV) activity of zidovudine by bacterial thymidine phosphorylase is shown in Table 1. FG-10 cells were used seeded on a plate one day before they were infected with FLV. One hour after infecting, known concentrations of the test compound or combination were added. The plates were incubated for 3 days, the media replaced with fresh McCoy's 5A media and incubated another 3 days.

With `Nc1nc2c(ncn2COCCO)c(=O)[nH]1` [Acyclovir, 9-[(2-hydroxyethoxy)methyl]guanine], the “Average Plaque Count” value in experiment [1] (Conc. 0.1 μM) is reported as 316.5; in experiment [1] (Conc. 0.25 μM) it was 298; in experiment [1] (Conc. 0.5 μM), 290.5; in experiment [1] (Conc. 1.0 μM), 230; in experiment [1] (Conc. 2.5 μM) it was 182; in experiment [1] (Conc. 5.0 μM), 88. Besides, the “Average Plaque Count” value stood at 54 in experiment [1] (Conc. 7.5 μM) and 34.5 in experiment [1] (Conc. 10 μM). Also, the inhibition at 0.1 µM in experiment [1] (Human alphaherpesvirus 1, 72 h, Conc. 0.1 μM) turned out to be 11.6%. The inhibition at 0.25 µM in experiment [1] (Human alphaherpesvirus 1, 72 h, Conc. 0.25 μM) stood at 16.7%. Besides, the inhibition at 0.5 µM in experiment [1] (Human alphaherpesvirus 1, 72 h, Conc. 0.5 μM) was found to be 19%. Also, the inhibition at 1 µM in experiment [1] (Human alphaherpesvirus 1, 72 h, Conc. 1.0 μM) came out at 35.8%. Moreover, in experiment [1] (Human alphaherpesvirus 1, 72 h, Conc. 2.5 μM), the inhibition at 2.5 µM amounted to 49.2%. The inhibition at 5 µM in experiment [1] (Human alphaherpesvirus 1, 72 h, Conc. 5.0 μM) was 75.4%. The inhibition at 7.5 µM in experiment [1] (Human alphaherpesvirus 1, 72 h, Conc. 7.5 μM) turned out to be 84.9%. For the same compound, the inhibition at 10 µM in experiment [1] (Human alphaherpesvirus 1, 72 h, Conc. 10 μM) came out at 90.4%.

Take `Cc1cn([C@H]2C[C@H](N=[N+]=[N-])[C@@H](CO)O2)c(=O)[nH]c1=O` [Zidovudine, 3′-azido-3′-deoxythymidine]: the IC50 in experiment [2] came out at 5 nM.
